# Source: patent US10508104B2, “6-hydroxy-5-(phenyl/heteroarylsulfonyl)pyrimidin-4(1H)-one as APJ agonists” (Bristol-Myers Squibb Company, priority 2016, dated 2019)
# Target: human APJ receptor (Homo sapiens (Human), UniProt P35414)
# Assay: Intracellular cAMP accumulation assay (APJ hcAMP, HTRF)
# Format: cell-based
# Details: HEK293 cells stably expressing human APJ receptor; inhibition of forskolin-mediated cAMP production; read-out: Human APJ cAMP EC50 Potency range
# Method: Intracellular cAMP Accumulation Assay
# HEK293 cells stably expressing human APJ receptor were used to assess the activity of compounds. Cultured cells were detached and resuspended in the cAMP Homogeneous Time-Resolved Fluorescence (HTRF) assay buffer (Cisbio cat; #62AM4PEJ). The assay was performed in 384-well assay plates (Perkin-Elmer; cat #6008289) according to assay protocol provided by the manufacturer. Serial dilutions of a compound together with assay buffer containing […] and 2 μM forskolin were added to each well containing 5,000 cells and incubated for 30 minutes at room temperature. Subsequently, cAMP D2 reagent was added in the lysis buffer followed by the EuK antibody (Cisbio; cat #62AM4PEJ) and incubated for 60 min. The fluorescence emission ratio was measured using fluorometer. The intracellular cAMP concentrations (compound-stimulated inhibition of forskolin-mediated cAMP production) were calculated by extrapolation from a standard curve using known cAMP concentrations. The EC50 values were obtained by fitting the data to a sigmoidal concentration-response curve with variable slope.
# The EC50 value of each compound is presented at the end of the example description.
# The biological activity of the exemplified compounds of this invention determined by the assay described above is shown at the end of each example.
# Sequence of human APJ receptor (P35414 whole entry): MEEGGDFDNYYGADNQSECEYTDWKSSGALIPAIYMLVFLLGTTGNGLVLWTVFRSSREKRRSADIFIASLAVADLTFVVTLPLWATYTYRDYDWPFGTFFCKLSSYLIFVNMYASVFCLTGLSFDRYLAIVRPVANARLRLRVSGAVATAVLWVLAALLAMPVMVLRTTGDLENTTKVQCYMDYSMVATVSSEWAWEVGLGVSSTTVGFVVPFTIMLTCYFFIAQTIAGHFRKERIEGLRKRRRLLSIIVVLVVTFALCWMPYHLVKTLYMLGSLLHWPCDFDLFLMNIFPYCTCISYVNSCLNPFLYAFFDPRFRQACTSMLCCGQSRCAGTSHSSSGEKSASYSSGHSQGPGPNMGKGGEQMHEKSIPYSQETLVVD
row,EC50,SMILES
1,0.01 to 10 nM,"CCCCc1nc(=O)c(S(=O)(=O)c2ccc(-n3cc(Cl)ccc3=O)cc2)c(O)n1-c1c(OC)cccc1OC [Example 71, 2-Butyl-5-((4-(5-chloro-2-oxopyridin-1 (2H)-yl)phenyl)sulfonyl)-1-(2,6-dimethoxyphenyl)-6-hydroxypyrimidin-4(1H)-one]"

# Same assay, conditions: human APJ, intracellular cAMP accumulation; read-out: Human APJ cAMP EC50 Potency range
row,SMILES,EC50
1,"CCCCc1nc(=O)c(S(=O)(=O)c2ccc(-c3cccc(C#N)c3)cc2)c(O)n1-c1c(OC)cccc1OC [Example 47, 3-(4-{[2-butyl-1-(2,6-dimethoxyphenyl)-6-hydroxy-4-oxo-1,4-dihydropyrimidin-5-yl]sulfonyl}phenyl) benzonitrile]",0.01 to 10 nM
2,"CCCCc1nc(=O)c(S(=O)(=O)c2ccc(-c3ccccc3COC)cc2)c(O)n1-c1c(OC)cccc1OC [Example 49, 2-butyl-1-(2,6-dimethoxyphenyl)-6-hydroxy-5-{4-[2-(methoxymethyl)phenyl]benzenesulfonyl}-1,4-dihydropyrimidin-4-one]",0.01 to 10 nM
3,"CCCCc1nc(=O)c(S(=O)(=O)c2ccc(-c3cncc(F)c3)cc2)c(O)n1-c1c(OC)cccc1OC [Example 50, 2-butyl-1-(2,6-dimethoxyphenyl)-5-[4-(5-fluoropyridin-3-yl)benzenesulfonyl]-6-hydroxy-1,4-dihydropyrimidin-4-one]",0.01 to 10 nM
4,"CCCCc1nc(=O)c(S(=O)(=O)c2ccc(-c3ccnc(NC(=O)C4CC4)c3)cc2)c(O)n1-c1c(OC)cccc1OC [Example 51, N-[4-(4-{[2-butyl-1-(2,6-dimethoxyphenyl)-6-hydroxy-4-oxo-1,4-dihydropyrimidin-5-yl]sulfonyl}phenyl)pyri-din-2-yl]cyclopropane-carboxamide]",0.01 to 10 nM
5,"CCCCc1nc(=O)c(S(=O)(=O)c2ccc(-c3cccc4cnccc34)cc2)c(O)n1-c1c(OC)cccc1OC [Example 52, 2-butyl-1-(2,6-dimethoxyphenyl)-6-hydroxy-5-[4-(isoquinolin-5-yl)benzenesulfonyl]-1,4-dihydropyrimidin-4-one]",0.01 to 10 nM
6,"CCCCc1nc(=O)c(S(=O)(=O)c2ccc(-c3ccc4ncccc4c3)cc2)c(O)n1-c1c(OC)cccc1OC [Example 54, 2-butyl-1-(2,6-dimethoxyphenyl)-6-hydroxy-5-[4-(quinolin-6-yl)benzenesulfonyl]-1,4-dihydropyrimidin-4-one]",0.01 to 10 nM
7,"CCCCc1nc(=O)c(S(=O)(=O)c2ccc(-c3ccc(OC(F)(F)F)cc3)cc2)c(O)n1-c1c(OC)cccc1OC [Example 55, 2-butyl-1-(2,6-dimethoxyphenyl)-6-hydroxy-5-{4-[4-(trifluoromethoxy)phenyl]benzenesulfonyl}-1,4-dihydropyrimidin-4-one]",0.01 to 10 nM
8,"CCCCc1nc(=O)c(S(=O)(=O)c2ccc(-c3cc(Cl)cc(Cl)c3)cc2)c(O)n1-c1c(OC)cccc1OC [Example 56, 2-butyl-5-[4-(3,5-dichlorophenyl)benzenesulfonyl]-1-(2,6-dimethoxyphenyl)-6-hydroxy-1,4-dihydropyrimidin-4-one]",0.01 to 10 nM
9,"CCCCc1nc(=O)c(S(=O)(=O)c2ccc(-c3ccc(F)c(F)c3)cc2)c(O)n1-c1c(OC)cccc1OC [Example 58, 2-butyl-5-[4-(3,4-difluorophenyl)benzenesulfonyl]-1-(2,6-dimethoxyphenyl)-6-hydroxy-1,4-dihydropyrimidin-4-one]",0.01 to 10 nM
10,"CCCCc1nc(=O)c(S(=O)(=O)c2ccc(-c3ccc(C)c(C)c3)cc2)c(O)n1-c1c(OC)cccc1OC [Example 59, 2-butyl-1-(2,6-dimethoxyphenyl)-5-[4-(3,4-dimethylphenyl)benzene-sulfonyl]-6-hydroxy-1,4-dihydropyrimidin-4-one]",0.01 to 10 nM
11,"CCCCc1nc(=O)c(S(=O)(=O)c2ccc(-c3cccnc3C)cc2)c(O)n1-c1c(OC)cccc1OC [Example 60, 2-butyl-1-(2,6-dimethoxyphenyl)-6-hydroxy-5-[4-(2-methylpyridin-3-yl)benzenesulfonyl]-1,4-dihydropyrimidin-4-one]",0.01 to 10 nM
12,"CCCCc1nc(=O)c(S(=O)(=O)c2ccc(-c3ccc(Cl)nc3C)cc2)c(O)n1-c1c(OC)cccc1OC [Example 61, 2-butyl-5-[4-(6-chloro-2-methylpyridin-3-yl)benzenesulfonyl]-1-(2,6-dimethoxyphenyl)-6-hydroxy-1,4-dihydropyrimidin-4-one]",0.01 to 10 nM
13,"CCCCc1nc(=O)c(S(=O)(=O)c2ccc(-c3ccnc(NC(=O)C4CC4)c3)cc2)c(O)n1-c1c(CC)cccc1CC [Example 65, N-[4-(4-{[2-butyl-1-(2,6-diethylphenyl)-6-hydroxy-4-oxo-1,4-dihydropyrimidin-5-yl]sulfonyl}phenyl)pyri-din-2-yl]cyclopropane-carboxamide]",0.01 to 10 nM
14,"CCCCc1nc(=O)c(S(=O)(=O)c2ccc(C)cc2)c(O)n1-c1c(CC)cccc1CC [Example 66, 2-butyl-1-(2,6-diethylphenyl)-6-hydroxy-5-(4-methylbenzenesulfonyl)-1,4-dihydropyrimidin-4-one]",0.01 to 10 nM
15,"CCCCc1nc(=O)c(S(=O)(=O)c2ccc(-c3ccc(F)cc3)c(F)c2)c(O)n1-c1c(OC)cccc1OC [Example 68, 2-butyl-1-(2,6-dimethoxyphenyl)-5-[3-fluoro-4-(4-fluorophenyl)benzene-sulfonyl]-6-hydroxy-1,4-dihydropyrimidin-4-one]",0.01 to 10 nM
16,"CCCCc1nc(=O)c(S(=O)(=O)c2ccc(-c3ccnc(F)c3C)c(F)c2)c(O)n1-c1c(OC)cccc1OC [Example 69, 2-butyl-1-(2,6-dimethoxyphenyl)-5-[3-fluoro-4-(2-fluoro-3-methylpyridin-4-yl)benzenesulfonyl]-6-hydroxy-1,4-dihydropyrimidin-4-one]",0.01 to 10 nM
17,"CCCCc1nc(=O)c(S(=O)(=O)c2ccc(-c3ccc(F)nc3)c(F)c2)c(O)n1-c1c(OC)cccc1OC [Example 70, 2-butyl-1-(2,6-dimethoxyphenyl)-5-[3-fluoro-4-(6-fluoropyridin-3-yl)benzenesulfonyl]-6-hydroxy-1,4-dihydropyrimidin-4-one]",0.01 to 10 nM
18,"CCCCc1nc(=O)c(S(=O)(=O)c2ccc(-n3ccccc3=O)cc2)c(O)n1-c1c(OC)cccc1OC [Example 72, 2-butyl-1-(2,6-dimethoxyphenyl)-6-hydroxy-5-[4-(2-oxo-1,2-dihydropyridin-1-yl)benzenesulfonyl]-1,4-dihydropyrimidin-4-one]",0.01 to 10 nM

# The next lines start with the values.
row,EC50,SMILES
1,0.01 to 10 nM,"CCCCc1nc(=O)c(S(=O)(=O)c2ccc(-c3cccc(OCOC)c3)cc2)c(O)n1-c1c(OC)cccc1OC [Example 45, 2-butyl-1-(2,6-dimethoxyphenyl)-6-hydroxy-5-{4-[3-(methoxymethoxy)phe-nyl]benzenesulfonyl}-1,4-dihydropyrimidin-4-one]"
2,0.01 to 10 nM,"CCCCc1nc(=O)c(S(=O)(=O)c2ccc(-c3ccccc3C#N)cc2)c(O)n1-c1c(OC)cccc1OC [Example 46, 2-(4-{[2-butyl-1-(2,6-dimethoxyphenyl)-6-hydroxy-4-oxo-1,4-dihydropyrimidin-5-yl]sulfonyl}phenyl) benzonitrile]"
3,0.01 to 10 nM,"CCCCc1nc(=O)c(S(=O)(=O)c2ccc(-c3ccc(NC(=O)OC)cc3)cc2)c(O)n1-c1c(OC)cccc1OC [Example 48, methyl N-[4-(4-{[2-butyl-1-(2,6-dimethoxyphenyl)-6-hydroxy-4-oxo-1,4-dihydropyrimidin-5-yl]sulfonyl}phenyl)phe-nyl]carbamate]"
4,0.01 to 10 nM,"CCCCc1nc(=O)c(S(=O)(=O)c2ccc(-c3ccc4c(ccn4C)c3)cc2)c(O)n1-c1c(OC)cccc1OC [Example 53, 2-butyl-1-(2,6-dimethoxyphenyl)-6-hydroxy-5-[4-(1-methyl-1H-indol-5-yl)benzenesulfonyl]-1,4-dihydropyrimidin-4-one]"
5,0.01 to 10 nM,"CCCCc1nc(=O)c(S(=O)(=O)c2ccc(-c3ccccc3F)cc2)c(O)n1-c1c(OC)cccc1OC [Example 57, 2-butyl-1-(2,6-dimethoxyphenyl)-5-[4-(2-fluorophenyl)benzene-sulfonyl]-6-hydroxy-1,4-dihydropyrimidin-4-one]"
6,0.01 to 10 nM,"CCCCc1nc(=O)c(S(=O)(=O)c2ccc(C)cc2)c(O)n1-c1c(OC)cccc1OC [Example 62, 2-butyl-1-(2,6-dimethoxyphenyl)-6-hydroxy-5-(4-methylbenzenesulfonyl)-1,4-dihydropyrimidin-4-one]"
7,0.01 to 10 nM,"COc1cccc(OC)c1-n1c(C2CCCC2)nc(=O)c(S(=O)(=O)c2ccc(C)cc2)c1O [Example 63, 2-cyclopentyl-1-(2,6-dimethoxyphenyl)-6-hydroxy-5-(4-methylbenzenesulfonyl)-1,4-dihydropyrimidin-4-one]"
8,0.01 to 10 nM,"COc1cccc(OC)c1-n1c(C2CCCC2)nc(=O)c(S(=O)(=O)c2ccc(-c3ccnc(NC(=O)C4CC4)c3)cc2)c1O [Example 64, N-[4-(4-{[2-cyclopentyl-1-(2,6-dimethoxyphenyl)-6-hydroxy-4-oxo-1,4-dihydropyrimidin-5-yl]sulfonyl}phenyl)pyri-din-2-yl]cyclopropane-carboxamide]"
9,0.01 to 10 nM,"CCOCc1nc(=O)c(S(=O)(=O)c2ccc(C)cc2)c(O)n1-c1c(CC)cccc1CC [Example 67, 1-(2,6-diethylphenyl)-2-(ethoxymethyl)-6-hydroxy-5-(4-methylbenzenesulfonyl)-1,4-dihydropyrimidin-4-one]"
